This is an account of results in patent publication US20240352396A1, “PE[…]-C[…] CULTURE INCUBATOR” (Northeastern University, priority 2023, published 2024).

One series concerns MCF7 cultures. Particulars: MCF7 in 24-well plate, 5% O2 incubator, 5 mM sodium azide; rose from 3% O2 to the incubator setpoint; PBS-spiked cultures returned to 3% O2.
A further series concerns MCF7. Particulars: 5 mM NaN3, 6 hours, 5% O2.

Protocol for MCF7 cultures: MCF7 were seeded overnight in a 24-well plate and incubated at 5% O2 for 24 hours. […] Cells were incubated with 1:1000 live/dead dye (LIVE/DEAD Fixable Kit, Thermo Fisher Scientific) for 1 hour. Flow cytometry (Attune NxT, Thermo Fisher Scientific) of live singlets was used to determine the cell viability.

On to `[N-]=[N+]=[N-]` [sodium azide], for which, in the series with MCF7 cultures, the “pericellular O2 tension” value was 5 % O2. The MCF7 cell viability entry in the series on MCF7 was “no significant change”.
